One assay has as its system Mus musculus. In words: Hypolipidemic activity in tyloxapol-induced Kunming mouse model of hyperlipidemia assessed as reduction in serum LDL level administered orally measured after 24 hrs. Type of assay: functional, organism-based.
The test system of another assay is 3T3-L1. The experiment in a line: Activation of AMPK in mouse 3T3-L1 matured adipocytes assessed as increase in AMPK phosphorylation at 1 uM by Western blot analysis relative to control. The format is cell-based. Conditions: filed as activator. (In western blotting, separated proteins are transferred to a membrane and probed.)

SMILES strings stand for the structures.

On to `CC(C)=CCC/C(C)=C/Cc1c(O)cc(O)c(C(=O)/C=C/c2ccc(O)cc2)c1O`, for which the Activity entry was “Dose-dependent effect” with Mus musculus and 49% with 3T3-L1.

These data come from ChEMBL document CHEMBL4765421, “Synthesis of natural 3'-Prenylchalconaringenin and biological evaluation of ameliorating non-alcoholic fatty liver disease and metabolic syndrome” (Eur J Med Chem, 2020).
